The values below come from patent US5336672A, “Increasing egg production in poultry” (Board of Supervisors of Louisiana State University and …, priority 1992, dated 1994).

Read-outs that look alike come from different tables or passages of the source.

Test [1] has as its system turkey poults. The following applies: Steele et al. 1979; Rosebrough et al. 1981; may depend on Cr (III) in an organic form; cited from earlier work.
Test [2] has as its system turkey breast tissue. The following applies: supplemental Cr; Anderson et al. 1989; cited from earlier work.
Test [3] relates to laying hen. The conditions noted are these: Jensen et al. 1978; cited from earlier work.
In test [4] the test system is adult men. The conditions noted are these: Cr supplementation; cited from earlier work.
Test [5] relates to rabbits. The following applies: cited from earlier work.
Test [6] relates to laying hens. The following applies: dietary; Jensen et al. 1980; cited from earlier work.
For test [7], the system named is rats. The following applies: 200 mg/kg picolinic acid in diet; cited from earlier work.
The test system of test [8] is swine. The following applies: Hill et al. 1986; cited from earlier work.
Test [9] deals with laying hens. Briefly: Percentage of egg crude protein (Kjeldahl N method), Example 1. In kind it is in vivo, Hyline 36 commercial-type laying hens. The following applies: for Egg Protein: egg of Day 24, SEM .2, chromium quadratic effect P < .02. An excerpt: (§1) Hyline 36 commercial-type laying hens were taken from the Louisiana State University Agricultural Center Poultry Unit. The hens were 32-36 weeks of age during the 28 days of the trial. A randomized complete block design was used, and the hens were blocked on location in the barn. Hens were penned individually in cages (0.30×0.41 m) in an open front building. Each of the six treatments described below was replicated ten times, with one hen per replicate. The hens were fed a corn-soybean meal laying hen basal diet for one week. The composition of the diet is set forth in Table 1, and was formulated to meet or exceed the requirements for all nutrients as stated in "Nutrient Requirements of Poultry," National Research Council (1984). The hens were then randomly allotted to a treatment, and were fed the experimental diets during a 28-day trial. The following treatments were used: (1) Corn-soybean meal basal (B), (2) B+50 ppb Cr, (3) B+100 ppb Cr, (4) B+200 ppb Cr, (5) B+400 ppb Cr, and (6) B+800 ppb Cr. Cromium was administered as chromium picolinate. Treatment diets and water were provided on an ad libitum basis.
(§2) Egg production was recorded daily, and eggs were collected on Days 2, 9, 16, and 23 for determination of specific gravity [weight in air/(weight in air-weight in water)] and Haugh units. (Haugh unit=100 Log10 (Albumen height (in mm)+(7.57-(1.7) (Egg mass in grams)^037))). Eggs were collected on Days 0, 7, 14, 21, and 28 for CH analysis. To determine yolk CH, eggs were hard-cooked by immersion in boiling water for 5 min. Yolks were removed and weighed. The entire yolk was blended with a volume of isopropyl alcohol proportional to the yolk weight (10 ml/g of yolk). The cholesterol content of this extract (mg per g wet weight) was determined by an automated procedure based on the Lieberman-Burchard method. One egg was collected on Day 22 for determination of percentage of egg fat using the acid hydrolysis method, and one egg was collected on Day 24 for determination of percentage of egg crude protein by the Kjeldahl N method.
(§3) Data were analyzed by analysis of variance. Linear, quadratic, and cubic contrasts were used to evaluate the treatment effects. Egg production, specific gravity, Haugh units, and CH were measured over time and analyzed by split-plot analyses using hen(trt*rep) as the error term in the model.

In test [10] the test system is laying hens. In words: Specific gravity of eggs, Example 1. In kind it is in vivo, Hyline 36 commercial-type laying hens. The conditions noted are these: for Specific gravity: mean of eggs of Days 2, 9, 16, 23, SEM .001.
Excerpt: as §1, §2, §3

The test system of test [11] is laying hens. Briefly: Egg production, Example 2 (eight-week trial, hens 28-36 weeks of age). In kind it is in vivo, Hyline 36 commercial-type laying hens. The following applies: for Egg Production: eight weeks, SEM 2.7.
Excerpt: as §1, §2, §3
(§4) The procedures described in Example 1 were followed, except as noted. The trial lasted eight weeks, and the hens were 28-36 weeks of age during the eight weeks of the trial. The treatments used were (1) Basal (B), (2) B+100 ppb Cr, (3) B+200 ppb Cr, (4) B+300 ppb Cr, and (5) B+400 ppb Cr. Only egg production is reported.

In test [12] the test system is laying hens. Briefly: Haugh units of eggs, Example 1. In kind it is in vivo, Hyline 36 commercial-type laying hens. The conditions noted are these: for Haugh units: mean of eggs of Days 2, 9, 16, 23, SEM 1.8.
Excerpt: as §1, §2, §3

In test [13] the test system is laying hens. Briefly: Egg production, Example 3 (eight-week trial, hens 48-56 weeks of age). The conditions noted are these: for Egg Production: eight weeks, SEM 4.3. In kind it is in vivo, Hyline 36 commercial-type laying hens.
Excerpt: as §1, §2, §3, §4
The procedures of Example 2 were followed, except that the hens were 48-56 weeks of age during the eight weeks of the trial.

The test system of test [14] is laying hens. Briefly: Percentage of egg fat (acid hydrolysis method), Example 1. In kind it is in vivo, Hyline 36 commercial-type laying hens. The conditions noted are these: for Egg fat: egg of Day 22, SEM .2, chromium quadratic effect P < .10; for Effect on percentage of egg fat: Cr quadratic, P<0.1.
Excerpt: as §1, §2, §3

In test [15] the test system is laying hens. In words: Egg yolk cholesterol (Lieberman-Burchard method), Example 1. In kind it is in vivo, Hyline 36 commercial-type laying hens. The following applies: for Egg CH (cholesterol): mean of eggs of Days 0, 7, 14, 21, 28, SEM .2.
Excerpt: as §1, §2, §3

In test [16] the test system is laying hens. In words: Egg production, Example 1 (28-day feeding trial, hens 32-36 weeks of age). In kind it is in vivo, Hyline 36 commercial-type laying hens. The following applies: for Egg Production: 28 days, mean of 10 replicates, SEM 2.7, chromium cubic effect P < .03.
Excerpt: as §1, §2, §3

[17] abbreviates: overall, 100-400 ppb Cr, P>0.10.
[18] abbreviates: hens receiving 100 and 200 ppb Cr.

On to `[Cr]` [Cr, chromium], for which the “Growth rate of turkey poults” value in [1] is “improved”. Further, the Turkey breast tissue entry in test [2] was “small increase”. The “Biological activity in the laying hen” value in test [3] is on record as “biologically active”. Besides, in [4], the HDL cholesterol result is “increases” and the Serum triglycerides entry is given as “decreases”. Also, in [5], the “Cholesterol (CH) accumulation” value was “decreased” and the “Removal rate of CH already deposited in the aorta” value is “increased”.

Take `O.O.O.O.O.O.[Cl][Cr]([Cl])[Cl]` [CrCl3.6H2 O]: the “Effect on egg production” value in test [6] is “no positive effect”.

`O=C(O)c1ccccn1` [picolinic acid, pyridine-2-carboxylic acid]: in [7], the “Growth rates in rats” value is on record as “greater growth rates”. For the same compound, in test [8], the Growth rates entry is reported as “faster growth rates” and the Zinc absorption entry is listed as “did not aid zinc absorption”.

Regarding chromium picolinate, the “Egg Protein” value in test [9] (B + 50 ppb Cr in diet) is 12.2%; in [9] (B + 100 ppb Cr in diet) it was 12.2%; in [9] (B + 200 ppb Cr in diet) it was 12.2%; in test [9] (B + 400 ppb Cr in diet), 12.6%; in test [9] (B + 800 ppb Cr in diet) it was 12.3%. For the same compound, the “Effect on percentage of egg crude protein” value in test [9] (CrPic supplementation to the diet, Cr quadratic, P<0.02) is “reduced”. Besides, the Specific gravity is 1.085 in [10] (B + 50 ppb Cr in diet); 1.084 in test [10] (B + 100 ppb Cr in diet); 1.084 in test [10] (B + 200 ppb Cr in diet); 1.084 in [10] (B + 400 ppb Cr in diet); 1.085 in test [10] (B + 800 ppb Cr in diet). Besides, the “Effect on specific gravity” value in test [10] (P>0.1) is “not affected”. Besides, the “Egg Production” value in test [11] (B + 100 ppb Cr in diet) is 85.2%; in [11] (B + 200 ppb Cr in diet) it was 82.3%; in [11] (B + 300 ppb Cr in diet) it was 84.5%; in test [11] (B + 400 ppb Cr in diet), 81.6%; in [13] (B + 100 ppb Cr in diet) it was 83.0%; in [13] (B + 200 ppb Cr in diet), 82.1%. Further, the “Egg Production” value in test [13] (B + 300 ppb Cr in diet) is on record as 74.8%; in test [13] (B + 400 ppb Cr in diet), 77.1%; in [16] (B + 50 ppb Cr in diet), 79.3%; in [16] (B + 100 ppb Cr in diet), 81.1%; in test [16] (B + 200 ppb Cr in diet), 83.2%; in [16] (B + 400 ppb Cr in diet), 76.1%. Moreover, the “Egg Production” value in test [16] (B + 800 ppb Cr in diet) is reported as 77.7%. Also, the “Effect on egg production” value in [11] (at 100 ppb Cr) is “numerical increase in egg production”; in [11] (setting [17]), “not observed to affect egg production”; in test [13] (at 100 ppb Cr), “numerical increase in egg production”; in [13] (setting [17]), “not observed to affect egg production”; in test [16] (at 400 and 800 ppb Cr, Cr cubic, P<0.03), “decreased”; in test [16] (supplementing the diet with CrPic, summary statement), “incrementally increased in some circumstances”. For the same compound, the “Effect on egg production” value in [16] (through 200 ppb Cr, Cr cubic, P<0.03) is listed as “increased”. Besides, the Haugh units in test [12] (B + 50 ppb Cr in diet) is 82.6; in [12] (B + 100 ppb Cr in diet), 84.6; in test [12] (B + 200 ppb Cr in diet), 82.0; in [12] (B + 400 ppb Cr in diet), 85.0; in test [12] (B + 800 ppb Cr in diet) it was 79.7. Also, the “Effect on Haugh units” value in test [12] (P>0.1) was “not affected”. Further, the Egg fat in test [14] (B + 50 ppb Cr in diet) is reported as 10.2%; in test [14] (B + 100 ppb Cr in diet), 10.6%; in test [14] (B + 200 ppb Cr in diet) it was 10.8%; in test [14] (B + 400 ppb Cr in diet), 10.0%; in test [14] (B + 800 ppb Cr in diet), 9.9%. Besides, the “Effect on percentage of egg fat” value in [14] (hens receiving 50, 400, and 800 ppb Cr) is reported as “lower”; in [14] (setting [18]), “higher”. Also, the “Egg CH (cholesterol)” value in test [15] (B + 50 ppb Cr in diet) is 12.1 mg/g yolk; in [15] (B + 100 ppb Cr in diet) it was 11.7 mg/g yolk; in test [15] (B + 200 ppb Cr in diet), 11.9 mg/g yolk; in test [15] (B + 400 ppb Cr in diet) it was 12.1 mg/g yolk; in test [15] (B + 800 ppb Cr in diet), 11.9 mg/g yolk. Moreover, the “Effect on egg CH” value is listed as “not affected” in test [15] (CrPic supplementation overall, P>0.1) and “tended to be lower” in [15] (setting [18]). Also, the “Effect on egg CH by Day 28” value in test [15] (by Day 28 of the trial, Cr quadratic, P<0.05) was “reduced”. For the same compound, the “Optimum dosage of CrPic for egg production” value in [16] (in the diet, from the experiments of Examples 1-3) was 100-200 ppb Cr.
